Test results: patent US7265129B2, “Anti-infective biaryl compounds” (priority 2002, dated 2007)

Assays:
[1] = tested on: E. faecium ATCC 51559; assay: MIC, E. faecium VRE; format: cell-based, Enterococcus faccium; conditions: Table C; E. faecium ATCC 51559, vancomycin resistant strain (VRE)
Method: (§1) Compounds according to this invention were screened for their in vitro activities against selected species of bacteria and fungi. The minimal inhibition concentration (MIC) of these compounds was determined using the National Committee for Clinical Laboratory Standards (NCCLS) broth microdilution assay in microtiter plates, as set forth in: (1) the guidelines of the National Committee for Clinical Laboratory Standards (NCCLS) Document M7-A4 (NCCLS, 1997); (2) the guidelines of the National Committee for Clinical Laboratory Standards (NCCLS) Document M11-A4 (NCCLS, 1997); and (3) the guidelines and reference method of the National Committee for Clinical Laboratory Standards (NCCLS) Document M27-T (NCCLS, 1995). For antifungal assays, the method recommended in Murray, P R., 1995 Manual of Clinical Microbiology (ASM Press, Washington, D.C.), was employed.
(§2) Additionally, some compounds were screened against Enterococcus faccium (ATCC 51559, a vancomycin resistant strain (VRE)), Staphylococcus epidermidis (ATCC 12228), Streptococcus pneumoniae (ATCC 51422, a penicillin resistant strain (PRSP)), and/or Streptococcus pyogenes (ATCC 49399).

[2] = tested on: C. albicans ATCC 38247; assay: MIC, antifungal assay, C. albicans; format: cell-based, Candida albicans
Description: (§3) It vitro biological activity data were collected for a variety of microorganisms, including Bacillus cereus (ATCC 11778), Staphylococcus aureus (ATCC 33591; ATCC 27660, a methicillin resistant strain (MRSA); ATCC 13709, a methicillin sensitive strain (MSSA)), Enterococcus faecalis (ATCC 29212), and Streptococcus pneumoniae (ATCC 49619). Additionally, antifungal activity data were collected for Candida albicans (ATCC 38247).
as §1

[3] = tested on: B. cereus ATCC 11778; assay: MIC, NCCLS broth microdilution, B. cereus; format: cell-based, Bacillus cereus
Description: as §3, §1

[4] = tested on: S. pneumoniae ATCC 49619; assay: MIC, NCCLS broth microdilution, S. pneumoniae; format: cell-based, Streptococcus pneumoniae
Description: as §3, §1

[5] = MIC, Table C (organism not given); format: cell-based
Method: as §1, §2

[6] = tested on: S. aureus ATCC 33591; assay: MIC, NCCLS broth microdilution, S. aureus ATCC 33591; format: cell-based, Staphylococcus aureus
Description: as §3, §1

[7] = tested on: S. epidermidis ATCC 12228; assay: MIC, S. epidermidis; format: cell-based, Staphylococcus epidermidis; conditions: Table C
Method: as §1, §2

[8] = tested on: S. aureus ATCC 27660; assay: MIC, NCCLS broth microdilution, S. aureus MRSA; format: cell-based, Staphylococcus aureus; conditions: S. aureus ATCC 27660, methicillin resistant strain (MRSA)
Description: as §3, §1

[9] = tested on: S. aureus ATCC 13709; assay: MIC, NCCLS broth microdilution, S. aureus MSSA; format: cell-based, Staphylococcus aureus; conditions: S. aureus ATCC 13709, methicillin sensitive strain (MSSA)
Description: as §3, §1

[10] = tested on: E. faecalis ATCC 29212; assay: MIC, NCCLS broth microdilution, E. faecalis; format: cell-based, Enterococcus faecalis
Description: as §3, §1

Row | SMILES | Minimum Inhibitory Concentration (MIC), organism A [1] | Minimum Inhibitory Concentration (MIC), organism B [2] | Minimum Inhibitory Concentration (MIC), organism A [3] | Minimum Inhibitory Concentration (MIC), organism G [4] | Minimum Inhibitory Concentration (MIC), organism E [5] | Minimum Inhibitory Concentration (MIC), organism F [6] | Minimum Inhibitory Concentration (MIC), organism B [7] | Minimum Inhibitory Concentration (MIC), organism E [8] | Minimum Inhibitory Concentration (MIC), organism D [9] | Minimum Inhibitory Concentration (MIC), organism C [10]
1 | Cn1cc(NC(=O)c2cc(NC(=O)c3sccc3Cl)cn2CCCN2CCC(F)(F)CC2)cc1-c1nc2ccccc2[nH]1 [Compound A-54] | +++ (MIC ≦ 4 pg/mL) | >32 µg/mL | +++ (MIC ≦ 4 μg/mL) | +++ (MIC ≦ 4 μg/mL) | +++ (MIC ≦ 4 pg/mL) | +++ (MIC ≦ 4 μg/mL) | +++ (MIC ≦ 4 pg/mL) | +++ (MIC ≦ 4 μg/mL) | +++ (MIC ≦ 4 μg/mL) | +++ (MIC ≦ 4 μg/mL)
2 | CN(C)CCCn1cc(NC(=O)c2sc3ccccc3c2Cl)cc1C(=O)Nc1cc(-c2nc3ncccc3[nH]2)n(C)c1 [Compound A-28] | – | >32 µg/mL | +++ (MIC ≦ 4 μg/mL) | +++ (MIC ≦ 4 μg/mL) | – | +++ (MIC ≦ 4 μg/mL) | – | +++ (MIC ≦ 4 μg/mL) | +++ (MIC ≦ 4 μg/mL) | +++ (MIC ≦ 4 μg/mL)
3 | CN(C)CCCn1cc(NC(=O)c2sc3ccccc3c2Cl)cc1C(=O)Nc1cc(-c2nc3ccncc3[nH]2)n(C)c1 [Compound A-29] | – | ++ (4 < MIC < 12 μg/mL) | +++ (MIC ≦ 4 μg/mL) | +++ (MIC ≦ 4 μg/mL) | – | +++ (MIC ≦ 4 μg/mL) | – | +++ (MIC ≦ 4 μg/mL) | +++ (MIC ≦ 4 μg/mL) | +++ (MIC ≦ 4 μg/mL)
4 | Cn1cc(NC(=O)c2cc(NC(=O)c3ccc(Cl)cc3F)cn2CCCN2CCCCC2)cc1-c1nc2ccccc2[nH]1 [Compound A-32] | – | + (12 ≦ MIC ≦ 32 μg/mL) | +++ (MIC ≦ 4 μg/mL) | +++ (MIC ≦ 4 μg/mL) | – | +++ (MIC ≦ 4 μg/mL) | – | +++ (MIC ≦ 4 μg/mL) | +++ (MIC ≦ 4 μg/mL) | +++ (MIC ≦ 4 μg/mL)
5 | Cn1cc(NC(=O)c2cc(NC(=O)c3sccc3Cl)cn2CCCN(CCO)CCO)cc1-c1nc2ccccc2[nH]1 [Compound A-55] | – | >32 µg/mL | + (12 ≦ MIC ≦ 32 μg/mL) | ++ (4 < MIC < 12 μg/mL) | – | ++ (4 < MIC < 12 μg/mL) | – | ++ (4 < MIC < 12 μg/mL) | + (12 ≦ MIC ≦ 32 μg/mL) | + (12 ≦ MIC ≦ 32 μg/mL)
6 | Cn1cc(NC(=O)c2cc(NC(=O)c3ccc(Cl)cc3F)cn2CCCN2CCSCC2)cc1-c1nc2ccccc2[nH]1 [Compound A-33] | – | >32 µg/mL | +++ (MIC ≦ 4 μg/mL) | +++ (MIC ≦ 4 μg/mL) | – | +++ (MIC ≦ 4 μg/mL) | – | +++ (MIC ≦ 4 μg/mL) | +++ (MIC ≦ 4 μg/mL) | +++ (MIC ≦ 4 μg/mL)
7 | Cn1cc(NC(=O)c2sccc2Cl)cc1C(=O)Nc1cc(-c2nc3ccccc3[nH]2)n(C)c1 [Compound A-47] | – | + (12 ≦ MIC ≦ 32 μg/mL) | +++ (MIC ≦ 4 μg/mL) | +++ (MIC ≦ 4 μg/mL) | – | +++ (MIC ≦ 4 μg/mL) | – | +++ (MIC ≦ 4 μg/mL) | +++ (MIC ≦ 4 μg/mL) | +++ (MIC ≦ 4 μg/mL)
